# Results from patent US11596652B2, “Early apoptotic cells for use in treating sepsis” (ENLIVEX THERAPEUTICS LTD., priority 2015, dated 2023).
# Several values for one entry are separate records, joined by “and”; a condition that tells them apart may be missing. Identical values can stand only once.
# Tests used:
# CLP-induced sepsis [1] = experiment: Cecal ligation puncture (CLP) mouse model for sepsis: survival, weight and MSS clinical score; type: in vivo
# Description: The cecal ligation puncture (CLP) model has been proposed to more closely replicate the nature and course of clinical sepsis in humans, as compared to other models, and is considered by many researchers as the gold-standard animal model of sepsis. The CLP model involves the ligation of the cecum, usually below the ileocecal junction (to prevent bowel obstruction), and at least one centimeter above the distal end of the cecum, otherwise the sepsis induced is very mild. The length of ligated cecum, defined as the distance from the distal end of the cecum to the ligation point, determines the severity of the sepsis induced. Following ligation, the cecum is perforated, and this step too can be adjusted to modulate the severity of the sepsis ensuing. The perforation of the cecum is followed by the release of fecal material into the peritoneal cavity to induce a polymicrobial infection, which results in an exacerbated immune response. The benefits of the CLP model are its reproducibility and potential to alter the severity of sepsis by controlling needle size, number of cecal punctures, and antibiotics utilization.
# The study reported here summarizes the effect of apoptotic cells administered 4 hours after the end of CLP on the development of CLP-induced sepsis in a female C57BL/6 mouse model.
# C57BL/6 female mice, 10-13 wk old, were purchased from ENVIGO (Israel). Mice were kept in an SPF animal facility in compliance with institutional IACUC guidelines. Mice were weighed daily and monitored 2-3 times a day for clinical signs and determination of the murine sepsis score (MSS) clinical score (according to Shrum, B., Anantha, R. V., Xu, S. X., Donnelly, M., Haeryfar, S. M. M., McCormick, J. K., and Mele, T. (2014). A robust scoring system to evaluate sepsis severity in an animal model. BMC Res. Notes 7, 1-11). The endpoint was defined as total score of 15 or maximum score in one of the categories in the table.
# The procedure was performed as briefly described below: Cecal Ligation and Puncture (CLP)—Experimental method. Briefly, the mice were operated under isoflurane anesthesia machine. Mice were anesthetized by 4% isoflurane in the chamber for about 1 minute, following anesthesia mice were transferred to the operation table and connected to the isoflurane nuzzle with 2% isoflurane. Mice were administered analgesics by sub-cutaneous (S.C.) injection of tramadol 5 mg/kg in 0.1 ml of pre-warmed 0.9% saline solution. After opening the abdomen of the mouse by a midline incision, the cecum was exposed. The cecum was ligated 75% above its distal end with a 4-0 silk suture. Following ligation, the cecum was perforated twice with a 19-gauge needle, using the through-and-through technique (introducing a needle through the cecum). […]
# [2] = tested on: serum cytokines/chemokines; experiment: CLP model: serum cytokines/chemokines (Luminex); type: in vivo, mouse; conditions: 24 h and 48 h post-CLP
# Experimental: At the indicated times (pre-CLP, 24 h, 48 h, and 72 h post-CLP) ˜500 μl blood was collected in a pre-labeled Eppendorf tube and left for 30 min to allow clotting. The samples were centrifuged at 1800 g (3000 rpm) for 10 min at 4° C., […]. Serum was transferred to a new pre-labeled Eppendorf tube and kept at 4° C. Excess serum was stored at −80° C. Cytokine/chemokine measurement was performed using the Luminex MAGPIX system, and analysis was performed with Milliplex software.
# Cytokine/chemokine measurement was performed using the Luminex MAGPIX system, and analysis was performed with Milliplex software. NGAL and Cystatin C were tested by Luminex Multiplex kit (Millipore, MKI2MAG-P4k). All reagents were provided with the kit, and all reagents were prepared according to the manufacturers' protocols. The assays were performed in 96-well plates according to the protocol provided. Plate reading was performed with the Luminex MAGPIX system (Luminex Corp.) and analyzed using Milliplex software (Millipore). […] The raw data was measured as mean fluorescence intensity (MFI) and the concentration of each analyte for each sample was calculated using a 4- or 5-parameter logistic fit curve generated for each analyte from the 7 standards. The lower limit of quantification (LLOQ) was determined using the lowest standard that was at least 3 times above background. […]
# CLP-induced sepsis [3] = experiment: CLP model: organ dysfunction analysis 24 hours post CLP (blood gas, hematology, biochemistry, lung weight, NGAL, cystatin C, C3a, C5a); type: in vivo, mouse; conditions: CLP + Ertapenem mice
# Experimental: 22-24 h after CLP, mice were weighed, assigned an MSS clinical score and sacrificed for the evaluation of organ dysfunction. Mice were bled through the retro-orbital sinus (venous blood). Naïve mice were bled under isoflurane analgesia; CLP mice were bled without analgesia due to the concern of death. 100 μl blood was collected using heparin-coated capillary tube (Paul Marienfeld, K G, Lauda-Knigshofen, Germany) and immediately tested using STAT profile prime machine (Nova Biomedical, Waltham, Mass., USA). […] was collected into EDTA tubes (MiniCollect, Greiner Bio-One, […], Austria), tubes were rotated to prevent blood clotting and kept at 4° C. Hematology analysis was performed by AML laboratories (Herzliya, Israel). About 500 μl blood was collected to a pre-labeled Eppendorf tube and left for -30 min to allow clotting. The samples were centrifuged at 1800 g (3000 rpm) for 10 min at 4° C., 200 μl serum was transferred to a new pre-labeled Eppendorf tube and kept at 4° C. Excess serum was stored in -80° C. Biochemistry analysis was performed by AML laboratories (Herzliya, Israel). […] Blood was collected to pre-labeled Eppendorf tubes and left for -30 min to allow clotting. Tubes were centrifuged at 1800 g (3000 rpm) for 10 min at 4° C. Serum was transferred to new pre-labeled Eppendorf tubes and stored at -80° C. for Luminex (NGAL and Cystatin C) and ELISA (C3a and C5a) evaluation. Cytokine/chemokine measurement was performed using the Luminex MAGPIX system, and analysis was performed with Milliplex software. NGAL and Cystatin C were tested by Luminex Multiplex kit (Millipore, […]). All reagents were provided with the kit, and all reagents were prepared according to the manufacturers' protocols. The assays were performed in 96-well plates according to the protocol provided. Plate reading was performed with the Luminex MAGPIX system (Luminex Corp.) and analyzed using Milliplex software (Millipore). […] The raw data was measured as mean fluorescence intensity (MFI) and the concentration of each analyte for each sample was calculated using a 4- or 5-parameter logistic fit curve generated for each analyte from the 7 standards. […] The calculation of the LLOQ was performed by subtracting the MFI of the background (diluent) from the MFI of the lowest standard concentration and back-calculating the concentration from the standard curve. Complement components were tested by sandwich ELISA kits: […]038) and C5a (EA100633, OriGene, Rockville, Md., USA). All reagents were provided with the kits and prepared according to the manufacturers' protocols. Assays were performed in 96-well plate according to the protocols provided. OD plate reading was performed with the Infinite F50 (TECAN, Mainnedorf, Switzerland) and analyzed using Magellan software (TECAN). The raw data was measured as 450 nm optical density (OD) and the concentration was calculated using a linear standard curve generated from 6-7 standards. The lower limit of quantification (LLOQ) was determined using the lowest standard. The calculation of the LLOQ was performed by subtracting the OD of the background (diluent) from the OD of the lowest standard concentration and back-calculating the concentration from the standard curve. […] N=40) was assigned with a clinical score, weighed, and blood samples were drawn from the retro-orbital sinus for further analyses. Mice were sacrificed and their lungs were harvested and weighed. To elucidate the effects of CLP on organ dysfunction and its correlation with the MSS clinical score, blood was tested for multiple parameters of organ dysfunction relating to five major systems: cardiovascular, respiratory, renal, hepatic, and hematological, as well as complement and several metabolites (Tables 24A and 24B).
# Raji cells = experiment: Flow cytometry of CD20+ Raji tumor cells in spleen, bone marrow and liver of leukemic mice; type: in vivo, mouse; conditions: for CD20+, Bone marrow / CD20+, Liver / CD20+, Spleen: In Vivo Experiment 023, individual mice
# Experimental: Mouse spleen, liver, and bone marrow were collected from sacrificed mice (following deterioration of clinical signs, as defined above) and analyzed by flow-cytometry (FACSCalibur, BD, Franklin Lakes, N.J., USA) for the presence of the Raji tumor (anti-CD20).
# Upon sacrifice, following the deterioration of clinical signs as described above, organs of interest were collected for analysis, namely the liver, spleen, and bone-marrow. Cells of these target organs were analyzed by flow cytometry for the presence of human tumor cells (Raji cells are positive for CD20).
# Liver, spleen, and bone marrow cells were collected and analyzed by flow cytometry (FACSCalibur, BD) for the presence of human CD20-FITC (Biolegend, Cat. #302206); mIgG1-FITC (Biolegend, Cat. #400110).
# Mouse spleen, liver, and bone marrow cells were collected from mice who were sacrificed following clinical deterioration, as defined in the methods) and analyzed by flow cytometry (FACSCalibur, BD) for the presence of human CD20 (FITC).
# Expression (%) of CD20 tumor cells in the spleen, bone marrow, and liver, as determine by flow cytometry. Mouse spleen, liver, and bone marrow were collected from sacrificed mice (following clinical deterioration, as defined in methods) and analyzed by flow cytometry (FACSCalibur, BD) for the presence of human CD20 (FITC).
# [4] = CLP mice given ertapenem, Allocetra-OTS 20×10^6 cells IV 4 h after CLP
compound,measurement,setting,value
C[C@@H](O)[C@H]1C(=O)N2C(C(=O)O)=C(S[C@@H]3CN[C@H](C(=O)Nc4cccc(C(=O)O)c4)C3)[C@H](C)[C@H]12 [Ertapenem],final clinical score (MSS plateau value),CLP-induced sepsis [1]; CLP mice given ertapenem,14.37
same,median survival,CLP-induced sepsis [1]; [4],48 h
same,mortality,CLP-induced sepsis [1]; [4],93%
same,survival rate,"CLP-induced sepsis [1]; Ertapenem with vehicle control, n=15",6.6%
same,cytokine/chemokine release after sepsis induction,[2],no beneficial effects
same,"Basophils, median",CLP-induced sepsis [3],0 10^3/μl
same,"C3a, median",CLP-induced sepsis [3],4835 ng/mL
same,"C5a, median",CLP-induced sepsis [3],1809 ng/mL
same,"Chloride, median",CLP-induced sepsis [3],121.1 mmol/L
same,"Cholesterol, median",CLP-induced sepsis [3],108 mg/dL
same,"Eosinophils, median",CLP-induced sepsis [3],0 10^3/μl
same,"Glucose, median",CLP-induced sepsis [3],59.5 mg/dL
same,"HCT, median",CLP-induced sepsis [3],40.9%
same,"Hemoglobin, median",CLP-induced sepsis [3],12.4 g/dL
same,"Lactate, median",CLP-induced sepsis [3],13 mg/dL
same,"Lymphocytes, median",CLP-induced sepsis [3],1.55 10^3/μl
same,"MCH, median",CLP-induced sepsis [3],14.9 pg
same,"MCHC, median",CLP-induced sepsis [3],31.2 g/dL
same,"MCV, median",CLP-induced sepsis [3],47.9 fL
same,"Monocytes, median",CLP-induced sepsis [3],0 10^3/μl
same,"Neutrophils, median",CLP-induced sepsis [3],0.31 10^3/μl
same,"Phosphorus, median",CLP-induced sepsis [3],10.2 mg/dL
same,"Platelets, median",CLP-induced sepsis [3],99 10^3/μL
same,"Potassium, median",CLP-induced sepsis [3],6.6 mmol/L
same,"RBC, median",CLP-induced sepsis [3],8.36 10^6/μL
same,"Sodium, median",CLP-induced sepsis [3],154.1 mmol/L
same,"WBC, median",CLP-induced sepsis [3],1.94 10^3/μL
Rituximab [RtX],"CD20+, Bone marrow",Raji cells; RtX 2 mg/kg,0.8% and 3.1% and 3%
same,"CD20+, Liver",Raji cells; RtX 2 mg/kg,2.1% and 1.2% and 0.4%
same,"CD20+, Spleen",Raji cells; RtX 2 mg/kg,0% (2×) and 0.7%
same,"CD20+, Bone marrow",Raji cells; RtX 5 mg/kg,2.1% and 0.5% and 4.3% and 2.2% and 2.6%
same,"CD20+, Liver",Raji cells; RtX 5 mg/kg,1% and 7.3% and 1.4% and 0.9% and 5.7%
same,"CD20+, Spleen",Raji cells; RtX 5 mg/kg,0% (3×) and 0.1% (2×)
same,"CD20+ average tumor cell population, Bone Marrow",Raji cells; rtx 2 mg/Kg,2.3 ± 1.3%
same,"CD20+ average tumor cell population, Liver",Raji cells; rtx 2 mg/Kg,1.2 ± 0.8%
same,"CD20+ average tumor cell population, Spleen",Raji cells; rtx 2 mg/Kg,0.2 ± 0.4%
same,"CD20+ average tumor cell population, Bone Marrow",Raji cells; rtx 5 mg/Kg,1.7 ± 1.5%
same,"CD20+ average tumor cell population, Liver",Raji cells; rtx 5 mg/Kg,3 ± 2.5%
same,"CD20+ average tumor cell population, Spleen",Raji cells; rtx 5 mg/Kg,0%
